Laboratory results from patent US4123541A, “2-Aminomethyl-5-phenyloxazoles and the pharmaceutically acceptable salts thereof” (Mitsubishi Chemical Industries Limited, priority 1976, dated 1978).
Where two headings read alike, the source gives them in different places.

What was measured:
[1] = system: carageenin-induced rat paw inflammation; test: Anti-inflammatory activity: carrageenin-induced rat paw inflammation (edema), oral; assay type: in vivo, rats of Wistar-King strain; details: 3 hours after carrageenin, read-out: Anti-inflammatory Activity (carageenin-induced rat paw inflammation) Percent Inhibition of Swelling; for inhibition in vivo at 25 mg/kg: oral dose 25 mg/kg; for inhibition in vivo at 50 mg/kg: oral dose 50 mg/kg; for inhibition in vivo at 100 mg/kg: oral dose 100 mg/kg; for inhibition in vivo at 12.5 mg/kg: oral dose 12.5 mg/kg
Description: The anti-inflammatory activity of the 2-aminomethyl-5-phenyloxazoles was compared with that of aminopyrine.
Eight male rats of Wistar-King strain, each weighing between 120 to 150 grams, were used for each group. The hind paw of the rats was injected subcutaneously with 0.1 ml of 1% carrageenin suspension. The volume of the paw was measured plethysmographically 3 hours after the injection, and the difference in volume between the edematous foot and the normal foot was regarded as the degree of edema. Each percent inhibition was calculated in comparison with the control. The test compounds were administered orally 30 minutes before the injection of carrageenin.

[2] = system: AcOH induced Writhing in Mice; test: Analgesic activity: (A) writhing syndrome induced by acetic acid; assay type: in vivo, mice of ddY strain; details: Mus musculus, sc, Litchfield-Wilcoxon's method
Description: (A) Writhing syndrome induced by acetic acid Six male mice of ddY strain, each weighing between 25 to 30 grams were used in the present experiment. […] Thereafter, the total number of writhings of a group was recorded for 20 minutes, and percent inhibition was calculated in comparison with the control. ED50 was calculated according to Litchfield-Wilcoxon's method.

[3] = system: squeak response of mouse to electrical stimulation of the tail root; test: Analgesic activity: (B) electrical stimulation method; assay type: in vivo, mice of ddY strain; details: ip, mice, Weil's method
Description: The analgesic activity of the 2-aminomethyl-5-phenyloxazoles was compared with that of aminopyrine.
(B) Electrical stimulation method
Five male mice of ddY strain, each weighing between 25 to 30 grams were used for each group.
Bipolar electrode was placed on the tail root of mouse. The mouse was stimulated with a square wave (5 m sec, 1 Hz), and the minimum voltage of squeak response was measured at 5, 10, 15, 30, 45 and 60 minutes after intraperitoneal administration of the test compound. Positive analgesic response was determined in cases where increase in the minimum voltage was observed. ED50 was calculated according to Weil's method. The acute toxicity values (LD50) of the […] were determined in the following manner: […]

[4] = Acute toxicity (LD50), mortality observed for 168 hours; details: mouse, in vivo, ip
Description: Bipolar electrode was placed on the tail root of mouse. The mouse was stimulated with a square wave (5 m sec, 1 Hz), and the minimum voltage of squeak response was measured at 5, 10, 15, 30, 45 and 60 minutes after intraperitoneal administration of the test compound. Positive analgesic response was determined in cases where increase in the minimum voltage was observed. ED50 was calculated according to Weil's method. The acute toxicity values (LD50) of the 2-aminoethyl-5-phenyloxazoles were determined in the following manner:
LD50 was calculated according to Weil's method.

[5] = mice, mortality for 168 hours, Weil's method

Which inhibition in vivo at 25 mg/kg [1] does the source give for `CNCc1ncc(-c2ccccc2)o1` here?
The inhibition in vivo at 25 mg/kg was 5%.

What about the inhibition in vivo at 50 mg/kg [1] of the same compound?
Its inhibition in vivo at 50 mg/kg is 40%.

And the inhibition in vivo at 100 mg/kg [1]?
Its inhibition in vivo at 100 mg/kg is 48%.

And the ED50 [2]?
The ED50 was 10.1 mg/kg.

What about the ED50 [3] of the same compound?
Its ED50 is 32 mg/kg.

What about the LD50 at 168 h ([4]; read-out: LD50 in Mice) of the same compound?
Its LD50 at 168 h is 238 mg/kg.

For `CCNCc1ncc(-c2ccc(Cl)cc2)o1`, which inhibition in vivo at 12.5 mg/kg [1] is on record?
The inhibition in vivo at 12.5 mg/kg was 16%.

What about the inhibition in vivo at 25 mg/kg [1] of the same compound?
The inhibition in vivo at 25 mg/kg was 43%.

And the inhibition in vivo at 50 mg/kg [1]?
The inhibition in vivo at 50 mg/kg was 65%.

And the inhibition in vivo at 100 mg/kg [1]?
The inhibition in vivo at 100 mg/kg was 60%.

And the ED50 [2]?
Its ED50 is 1.9 mg/kg.

What about the ED50 [3] of the same compound?
The ED50 was 35 mg/kg.

What about the LD50 at 168 h ([4]; read-out: LD50 in Mice) of the same compound?
The LD50 at 168 h was 283 mg/kg.

What does the source list for `CN(C)Cc1ncc(-c2ccc(Cl)cc2)o1`?
inhibition in vivo at 100 mg/kg [1]: 7%; ED50 [2]: 78 mg/kg; ED50 [3]: 77 mg/kg; LD50 at 168 h ([4]; read-out: LD50 in Mice): 336 mg/kg

With `CNCc1ncc(-c2ccc(Cl)cc2)o1` as the compound, how does the inhibition in vivo at 100 mg/kg [1] read?
The inhibition in vivo at 100 mg/kg was 17%.

And the ED50 [2]?
The ED50 was 22 mg/kg.

What about the ED50 [3] of the same compound?
The ED50 was 46 mg/kg.

What about the LD50 at 168 h ([4]; read-out: LD50 in Mice) of the same compound?
The LD50 at 168 h was 141 mg/kg.

What does the source list for `NCc1ncc(-c2ccc(Cl)cc2)o1`?
inhibition in vivo at 25 mg/kg [1]: 25%; inhibition in vivo at 50 mg/kg [1]: 29%; inhibition in vivo at 100 mg/kg [1]: 65%; ED50 [2]: 6 mg/kg; ED50 [3]: 50 mg/kg; LD50 at 168 h ([4]; read-out: LD50 in Mice): 476 mg/kg

For `CCNCc1ncc(-c2ccccc2)o1`, which inhibition in vivo at 50 mg/kg [1] is on record?
The inhibition in vivo at 50 mg/kg was 23%.

What about the inhibition in vivo at 100 mg/kg [1] of the same compound?
Its inhibition in vivo at 100 mg/kg is 47%.

What about the ED50 [3] of the same compound?
The ED50 was 21.4 mg/kg.

What about the LD50 at 168 h ([4]; read-out: LD50 in Mice) of the same compound?
Its LD50 at 168 h is 141 mg/kg.

What does the source list for `CNCc1ncc(-c2ccc(F)cc2)o1`?
inhibition in vivo at 50 mg/kg [1]: 38%; inhibition in vivo at 100 mg/kg [1]: 55%; LD50 at 168 h [4, 5]: 141 mg/kg

Which inhibition in vivo at 25 mg/kg [1] does the source give for `NCc1ncc(-c2ccccc2Cl)o1` here?
Its inhibition in vivo at 25 mg/kg is 28%.

And the inhibition in vivo at 50 mg/kg [1]?
Its inhibition in vivo at 50 mg/kg is 58%.

And the inhibition in vivo at 100 mg/kg [1]?
The inhibition in vivo at 100 mg/kg was 42%.

And the LD50 at 168 h [4, 5]?
Its LD50 at 168 h is 283 mg/kg.

Which inhibition in vivo at 100 mg/kg [1] does the source give for `CNCc1ncc(-c2cccc(Cl)c2)o1` here?
The inhibition in vivo at 100 mg/kg was 21%.

And the LD50 at 168 h [4, 5]?
The LD50 at 168 h was 283 mg/kg.

What does the source list for `CNCc1ncc(-c2ccccc2Cl)o1`?
inhibition in vivo at 100 mg/kg [1]: 14%; LD50 at 168 h [4, 5]: 141 mg/kg

Which inhibition in vivo at 100 mg/kg [1] does the source give for `CCNCc1ncc(-c2ccccc2Cl)o1` here?
Its inhibition in vivo at 100 mg/kg is 14%.

And the ED50 [3]?
Its ED50 is 54 mg/kg.

And the LD50 at 168 h ([4]; read-out: LD50 in Mice)?
The LD50 at 168 h was 141 mg/kg.

For `CCNCc1ncc(-c2ccc(Br)cc2)o1`, which inhibition in vivo at 100 mg/kg [1] is on record?
The inhibition in vivo at 100 mg/kg was 22%.

What about the LD50 at 168 h [4, 5] of the same compound?
Its LD50 at 168 h is 168 mg/kg.

With `CCNCc1ncc(-c2ccc(Cl)c(Cl)c2)o1` as the compound, how does the inhibition in vivo at 25 mg/kg [1] read?
The inhibition in vivo at 25 mg/kg was 27%.

And the inhibition in vivo at 50 mg/kg [1]?
The inhibition in vivo at 50 mg/kg was 56%.

What about the inhibition in vivo at 100 mg/kg [1] of the same compound?
Its inhibition in vivo at 100 mg/kg is 68%.

What about the LD50 at 168 h [4, 5] of the same compound?
The LD50 at 168 h was 141 mg/kg.

Which inhibition in vivo at 50 mg/kg [1] does the source give for `CCCNCc1ncc(-c2ccc(Cl)cc2)o1` here?
Its inhibition in vivo at 50 mg/kg is 24%.

What about the inhibition in vivo at 100 mg/kg [1] of the same compound?
Its inhibition in vivo at 100 mg/kg is 38%.

What about the ED50 [3] of the same compound?
Its ED50 is 47 mg/kg.

And the LD50 at 168 h ([4]; read-out: LD50 in Mice)?
Its LD50 at 168 h is 566 mg/kg.

With `CCCNCc1ncc(-c2cccc(Cl)c2)o1` as the compound, how does the inhibition in vivo at 50 mg/kg [1] read?
The inhibition in vivo at 50 mg/kg was 4%.

What about the inhibition in vivo at 100 mg/kg [1] of the same compound?
Its inhibition in vivo at 100 mg/kg is 32%.

What about the LD50 at 168 h [4, 5] of the same compound?
Its LD50 at 168 h is 283 mg/kg.

Which inhibition in vivo at 50 mg/kg [1] does the source give for `CCCNCc1ncc(-c2ccc(F)cc2)o1` here?
The inhibition in vivo at 50 mg/kg was 45%.

And the inhibition in vivo at 100 mg/kg [1]?
Its inhibition in vivo at 100 mg/kg is 53%.

What about the ED50 [3] of the same compound?
Its ED50 is 54 mg/kg.

And the LD50 at 168 h ([4]; read-out: LD50 in Mice)?
The LD50 at 168 h was 238 mg/kg.

With `CCN(CC)Cc1ncc(-c2ccc(Cl)cc2)o1` as the compound, how does the inhibition in vivo at 50 mg/kg [1] read?
Its inhibition in vivo at 50 mg/kg is 24%.

And the inhibition in vivo at 100 mg/kg [1]?
The inhibition in vivo at 100 mg/kg was 44%.

What about the LD50 at 168 h [4, 5] of the same compound?
Its LD50 at 168 h is 238 mg/kg.

For `OCCN1CCN(Cc2ncc(-c3ccc(Cl)c(Cl)c3)o2)CC1`, which inhibition in vivo at 100 mg/kg [1] is on record?
The inhibition in vivo at 100 mg/kg was 14%.

And the LD50 at 168 h [4, 5]?
Its LD50 at 168 h is 141 mg/kg.

Which inhibition in vivo at 100 mg/kg [1] does the source give for `OCCN1CCN(Cc2ncc(-c3ccccc3)o2)CC1` here?
Its inhibition in vivo at 100 mg/kg is 6%.

What about the LD50 at 168 h [4, 5] of the same compound?
The LD50 at 168 h was 283 mg/kg.

For `OCCN1CCN(Cc2ncc(-c3ccc(F)cc3)o2)CC1`, which inhibition in vivo at 50 mg/kg [1] is on record?
The inhibition in vivo at 50 mg/kg was 8%.

And the inhibition in vivo at 100 mg/kg [1]?
The inhibition in vivo at 100 mg/kg was 54%.

What about the LD50 at 168 h [4, 5] of the same compound?
The LD50 at 168 h was 336 mg/kg.

With `OCCN1CCN(Cc2ncc(-c3ccc(Cl)cc3)o2)CC1` as the compound, how does the inhibition in vivo at 12.5 mg/kg [1] read?
Its inhibition in vivo at 12.5 mg/kg is 6%.

And the inhibition in vivo at 25 mg/kg [1]?
Its inhibition in vivo at 25 mg/kg is 27%.

And the inhibition in vivo at 50 mg/kg [1]?
The inhibition in vivo at 50 mg/kg was 57%.

And the inhibition in vivo at 100 mg/kg [1]?
The inhibition in vivo at 100 mg/kg was 50%.

What about the ED50 [2] of the same compound?
Its ED50 is 16 mg/kg.

And the ED50 [3]?
The ED50 was 30.8 mg/kg.

And the LD50 at 168 h ([4]; read-out: LD50 in Mice)?
The LD50 at 168 h was 283 mg/kg.

With `Cc1c(N(C)C)c(=O)n(-c2ccccc2)n1C` [Aminopyrine, reference compound] as the compound, how does the inhibition in vivo at 12.5 mg/kg [1] read?
Its inhibition in vivo at 12.5 mg/kg is 9%.

What about the inhibition in vivo at 25 mg/kg [1] of the same compound?
Its inhibition in vivo at 25 mg/kg is 23%.

And the inhibition in vivo at 50 mg/kg [1]?
Its inhibition in vivo at 50 mg/kg is 47%.

What about the inhibition in vivo at 100 mg/kg [1] of the same compound?
Its inhibition in vivo at 100 mg/kg is 65%.

And the ED50 [2]?
Its ED50 is 37 mg/kg.

And the ED50 [3]?
Its ED50 is 96 mg/kg.

What about the LD50 at 168 h [4, 5] of the same compound?
The LD50 at 168 h was 270 mg/kg.
